Ten molecules from ChEMBL document CHEMBL1201862, “PubChem BioAssay data set” (2004) can be followed below.

Among the test systems are SN12C; CCRF-CEM; Hs-578T; RXF 393; SF-268; OVCAR-8; SK-MEL-2; UACC-257; OVCAR-5; A549; M14; KM12; MDA-MB-231; HCT-15; MDA-MB-435; UACC-62; COLO 205; HOP-92; IGROV-1; NCI-H23.
Common to all, as to test: NCI-60 cell line screen, 48 h

Molecules are shown by their SMILES. Where a name gives a salt, the structure may show the parent alone.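 These data come from cells grown in 96-well plates and exposed to compound for 48 hours at five concentrations. At the GI50, growth is halved.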 Activity calls are given as the source filed them. Cut-off read from the data, not from the text of the source: active = GI50 up to about 1.1 µM and inactive = higher. Where only a bound is given, the exact number is not on record here.

On to `NC1CC(=O)c2cc(Cl)sc21` (configuration not stated), for which the GI50 in the experiment on SN12C, with CCRF-CEM, in the experiment with Hs-578T, in the experiment on RXF 393, in the experiment with SF-268 and in the experiment with OVCAR-8 was > 100 µM (inactive) throughout. Further, the GI50 with SK-MEL-2, with UACC-257, in the experiment with OVCAR-5, with A549, with M14 and in the experiment on KM12 was > 100 µM (inactive) in each case. For the same molecule, the GI50 is > 100 µM (inactive) in the experiment on MDA-MB-231; more than 100 µM in the experiment with HCT-15; > 100 µM (inactive) with MDA-MB-435; > 100 µM (inactive) with UACC-62; > 100 µM (inactive) in the experiment with COLO 205; > 100 µM (inactive) in the experiment on HOP-92. Moreover, the GI50 in the experiment with IGROV-1 and in the experiment on NCI-H23 was > 100 µM (inactive) throughout.

For `COc1cc(C#CC(=O)OC/C=C/c2ccc3c(c2)OCO3)cc(OC)c1OC`, the GI50 is 31.2 µM (inactive) in the experiment on SN12C; 18.9 µM (inactive) with CCRF-CEM; 22.2 µM (inactive) in the experiment on Hs-578T; 12.3 µM (inactive) with RXF 393; 19.5 µM (inactive) with SF-268; 29.1 µM (inactive) with OVCAR-8. The GI50 with SK-MEL-2 was 10 µM (inactive); with UACC-257, 26.8 µM (inactive); in the experiment with OVCAR-5, 35.6 µM (inactive); in the experiment with A549 it was 33.7 µM (inactive); in the experiment on M14, 24 µM (inactive); in the experiment on KM12, 30.4 µM (inactive). Besides, the GI50 in the experiment on MDA-MB-231 is 25.8 µM (inactive); with HCT-15, 24.9 µM; in the experiment with MDA-MB-435, 18.5 µM (inactive); in the experiment on UACC-62 it was 18.8 µM (inactive); in the experiment with COLO 205 it was 19.1 µM (inactive); in the experiment on HOP-92, 17.8 µM (inactive). For the same molecule, in the experiment with NCI-H23, the GI50 is 25.2 µM (inactive).

In the case of `CCC[C@H](C)C[C@H](C)C[C@H](C)/C=C(\C)[C@@H](O)[C@@H](C)C(=O)CC`, the GI50 in the experiment on SN12C is 18.8 µM (inactive); in the experiment on CCRF-CEM, 24.3 µM (inactive); in the experiment with Hs-578T, 25 µM (inactive); in the experiment with RXF 393 it was 20.7 µM (inactive); with SF-268, 20.9 µM (inactive); in the experiment on OVCAR-8, 20.3 µM (inactive). Also, the GI50 in the experiment on SK-MEL-2 is 24.9 µM (inactive); with UACC-257 it was 20.1 µM (inactive); in the experiment with OVCAR-5 it was 19.9 µM (inactive); with A549, 19.9 µM (inactive); with M14, 19.8 µM (inactive); with KM12, 20.2 µM (inactive). Besides, the GI50 in the experiment on MDA-MB-231 was 25.3 µM (inactive); in the experiment with HCT-15 it was 21 µM; in the experiment on MDA-MB-435, 20.6 µM (inactive); in the experiment on UACC-62, 17.1 µM (inactive); with HOP-92 it was 20.8 µM (inactive); with IGROV-1, 19.3 µM (inactive). Moreover, in the experiment on NCI-H23, the GI50 is 18.9 µM (inactive).

As to `NCCOc1cccc(C2(N3CCCCC3)CCCCC2)c1`, the GI50 with SN12C is > 100 µM (inactive); in the experiment on CCRF-CEM it was 16.7 µM (inactive); in the experiment with Hs-578T it was 16.9 µM (inactive); in the experiment with RXF 393, 22 µM (inactive); in the experiment on SF-268, 25.6 µM (inactive); in the experiment on OVCAR-8 it was 33.4 µM (inactive). The GI50 with SK-MEL-2 is 21.8 µM (inactive); in the experiment on UACC-257, 19 µM (inactive); in the experiment with OVCAR-5, 41.4 µM (inactive); in the experiment with A549, 37.2 µM (inactive); in the experiment with M14, 16.4 µM (inactive); in the experiment with KM12 it was 45.3 µM (inactive). Further, the GI50 in the experiment on MDA-MB-231 is 21 µM (inactive); in the experiment on HCT-15 it was 38.9 µM; in the experiment with MDA-MB-435 it was 17.1 µM (inactive); in the experiment with UACC-62, 20.2 µM (inactive); in the experiment on COLO 205, 12.3 µM (inactive); in the experiment on HOP-92, 0.773 µM (active). In the experiment on NCI-H23, the GI50 is > 100 µM (inactive).

For `CC1(C)OC1CC/C(=C/CBr)CBr` (configuration not stated), the GI50 is 15.6 µM (inactive) in the experiment on SN12C; 8.17 µM (inactive) in the experiment with CCRF-CEM; 17.5 µM (inactive) in the experiment with Hs-578T; 17 µM (inactive) in the experiment on RXF 393; 15.5 µM (inactive) with SF-268; 14.8 µM (inactive) in the experiment on SK-MEL-2. The GI50 in the experiment on UACC-257 is 14.9 µM (inactive); in the experiment with OVCAR-5 it was 17.5 µM (inactive); in the experiment with A549, 21.3 µM (inactive); in the experiment on M14, 19.8 µM (inactive); in the experiment with KM12, 16 µM (inactive); in the experiment on MDA-MB-231 it was 15.7 µM (inactive). For the same molecule, the GI50 is 17.8 µM (inactive) with MDA-MB-435; 15.9 µM (inactive) in the experiment on COLO 205; 15.4 µM (inactive) in the experiment on HOP-92; 13.8 µM (inactive) with IGROV-1; 15.5 µM (inactive) with NCI-H23.

With `O=C(NC(Nc1ccc(F)c(Cl)c1)(C(F)(F)F)C(F)(F)F)C(C(F)(F)F)C(F)(F)F`, the GI50 with SN12C is 32.5 µM (inactive); with CCRF-CEM, 22.1 µM (inactive); with Hs-578T, 17.6 µM (inactive); in the experiment with RXF 393, 23.2 µM (inactive); in the experiment on SF-268 it was 29.1 µM (inactive); in the experiment on OVCAR-8 it was 25.9 µM (inactive). Further, the GI50 in the experiment on SK-MEL-2 was 16.6 µM (inactive); in the experiment on UACC-257, 32.7 µM (inactive); in the experiment with OVCAR-5, 23.9 µM (inactive); in the experiment on A549, 27.2 µM (inactive); with M14, 21.9 µM (inactive); in the experiment with KM12, 17.9 µM (inactive). Moreover, the GI50 in the experiment on MDA-MB-231 was 28.3 µM (inactive); in the experiment on HCT-15, 18.1 µM; in the experiment on MDA-MB-435, 26.5 µM (inactive); in the experiment on COLO 205, 28.5 µM (inactive); in the experiment with HOP-92 it was 29.2 µM (inactive); in the experiment on IGROV-1, 13.4 µM (inactive). Further, the GI50 in the experiment with NCI-H23 was 23.3 µM (inactive).

`C[C@]12CC[C@H]3[C@@H](CC=C4C[C@@H](O)CC[C@@]43C)[C@@H]1C/C(=C/c1ccccc1)[C@@H]2O`: the GI50 with CCRF-CEM was 14.6 µM (inactive); in the experiment on Hs-578T, 43 µM (inactive); with RXF 393, > 25.1 µM (inactive); with SF-268, 29.3 µM (inactive); with OVCAR-8, 20.9 µM (inactive); with SK-MEL-2 it was 20.9 µM (inactive). Further, the GI50 was 15.6 µM (inactive) with UACC-257; > 46.7 µM (inactive) in the experiment on OVCAR-5; > 35.6 µM (inactive) in the experiment on A549; > 45.1 µM (inactive) with M14; 23 µM (inactive) in the experiment on KM12; 43.1 µM (inactive) with MDA-MB-231. Also, the GI50 is 19.7 µM with HCT-15; > 46 µM (inactive) in the experiment on MDA-MB-435; 17.8 µM (inactive) in the experiment on UACC-62; > 53.6 µM (inactive) in the experiment with COLO 205; 32.4 µM (inactive) in the experiment on HOP-92; 11.8 µM (inactive) with IGROV-1. For the same molecule, in the experiment with NCI-H23, the GI50 was 15.9 µM (inactive).

`COc1cccc(NC(=O)c2c(SC)c(C#N)c(=O)n(N)c2N)c1`: the GI50 was > 100 µM (inactive) with SN12C; 35.2 µM (inactive) with CCRF-CEM; 41.1 µM (inactive) in the experiment with Hs-578T; > 100 µM (inactive) in the experiment on RXF 393; 72.1 µM (inactive) in the experiment on SF-268; 47.9 µM (inactive) with OVCAR-8. Further, the GI50 was > 100 µM (inactive) in the experiment with SK-MEL-2; > 100 µM (inactive) in the experiment with UACC-257; 31.7 µM (inactive) in the experiment on OVCAR-5; 57.7 µM (inactive) with A549; 30.6 µM (inactive) in the experiment on M14; > 100 µM (inactive) in the experiment on KM12. The GI50 in the experiment with MDA-MB-231 is 95.7 µM (inactive); in the experiment with HCT-15, 66.2 µM; with MDA-MB-435, 97.5 µM (inactive); in the experiment on UACC-62, 61.5 µM (inactive); in the experiment with COLO 205, > 100 µM (inactive); with HOP-92 it was 47.4 µM (inactive). In addition, the GI50 in the experiment with IGROV-1 was > 100 µM (inactive).

`CC[C@]12C=CCN3CCC4(c5cc([C@@]6(C(=O)OC)CC7CN(CCc8c6[nH]c6ccccc86)C[C@@H]6CCCC[C@H]76)c(OC)cc5N(C)C4[C@](O)(C(=O)OC)C1OC(C)=O)[C@@H]32` (some centres not stated): the GI50 in the experiment on SN12C, in the experiment with CCRF-CEM, in the experiment with Hs-578T, in the experiment on RXF 393, in the experiment on SF-268 and in the experiment on OVCAR-8 was < 0.01 µM (active) each time. The GI50 is < 0.01 µM (active) in the experiment with SK-MEL-2; < 0.01 µM (active) in the experiment with A549; < 0.01 µM (active) in the experiment with M14; < 0.01 µM (active) in the experiment with KM12; < 0.01 µM (active) in the experiment on MDA-MB-231; less than 0.01 µM in the experiment on HCT-15. Further, the GI50 in the experiment on MDA-MB-435 was < 0.01 µM (active); with UACC-62, < 0.01 µM (active); in the experiment with COLO 205, < 0.01 µM (active); in the experiment with HOP-92, 0.0259 µM (active); with IGROV-1, < 0.01 µM (active); with NCI-H23, < 0.01 µM (active).

On to `CN[C@@H]1[C@H](O)[C@H](NC)[C@H]2O[C@@]3(O)C(=O)C[C@@H](C)O[C@H]3O[C@@H]2[C@H]1O` [SPECTINOMYCIN SULFATE], for which the GI50 in the experiment on SN12C, in the experiment on CCRF-CEM, in the experiment on Hs-578T, with RXF 393, in the experiment on SF-268 and with OVCAR-8 was > 100 µM (inactive) throughout. In addition, the GI50 in the experiment on UACC-257 was > 100 µM (inactive); with OVCAR-5, > 100 µM (inactive); in the experiment with M14, > 100 µM (inactive); in the experiment on KM12, > 100 µM (inactive); with MDA-MB-231, > 100 µM (inactive); in the experiment on HCT-15, more than 100 µM. The GI50 in the experiment on MDA-MB-435, in the experiment on UACC-62, with COLO 205, in the experiment with HOP-92, in the experiment with IGROV-1 and in the experiment with NCI-H23 was > 100 µM (inactive) in each case.
